{"source": "paper PMC5748279", "about": "“Novel Antitubercular 6-Dialkylaminopyrimidine Carboxamides from Phenotypic Whole-Cell High Throughput Screening of a SoftFocus Library: Structure–Activity Relationship and Target Identification Studies” (Journal of Medicinal Chemistry, 2017)", "key": {"[1]": {"target": "Mycobacterium bovis BCG extract proteins (Mycobacterium bovis BCG, UniProt P9WGQ7)", "experiment": "biochemical", "assay_type": "binding"}, "[2]": {"target": "Mycobacterium bovis BCG extract proteins (Mycobacterium bovis BCG, UniProt P9WKC7)", "experiment": "biochemical", "assay_type": "binding"}, "[3]": {"target": "Mycobacterium bovis BCG extract proteins (Mycobacterium bovis BCG, UniProt A0A1R3Y5J1)", "experiment": "biochemical", "assay_type": "binding"}, "[4]": {"system": "Mycobacterium bovis BCG extract proteins", "experiment": "biochemical", "assay_type": "binding"}, "[5]": {"target": "Mycobacterium bovis BCG extract proteins (Mycobacterium bovis BCG, UniProt A1KLS7)", "experiment": "biochemical", "assay_type": "binding"}, "[6]": {"target": "Mycobacterium bovis BCG extract proteins (Mycobacterium bovis, UniProt A0A1R3Y5J0)", "experiment": "biochemical", "assay_type": "binding"}, "[7]": {"target": "Mycobacterium bovis BCG extract proteins (Mycobacterium bovis BCG, UniProt A0A1R3Y6U4)", "experiment": "biochemical", "assay_type": "binding"}, "[8]": {"target": "Mycobacterium bovis BCG extract proteins (Mycobacterium bovis BCG, UniProt A0A1R3Y5H4)", "experiment": "biochemical", "assay_type": "binding"}, "[9]": {"target": "Mycobacterium bovis BCG extract proteins (Mycobacterium bovis BCG, UniProt A0A1R3Y5K6)", "experiment": "biochemical", "assay_type": "binding"}, "[10]": {"target": "Mycobacterium bovis BCG extract proteins (Mycobacterium bovis BCG, UniProt A1KQG9)", "experiment": "biochemical", "assay_type": "binding"}, "[11]": {"target": "Mycobacterium bovis BCG extract proteins (Mycobacterium bovis BCG, UniProt P0A4Z9)", "experiment": "biochemical", "assay_type": "binding"}, "[12]": {"target": "Mycobacterium bovis BCG extract proteins (Mycobacterium bovis BCG, UniProt A0A0H3M9Z0)", "experiment": "biochemical", "assay_type": "binding"}, "[13]": {"target": "Mycobacterium bovis BCG extract proteins (Mycobacterium bovis BCG, UniProt O69687)", "experiment": "biochemical", "assay_type": "binding"}, "[14]": {"target": "Mycobacterium bovis BCG extract proteins (Mycobacterium bovis BCG, UniProt A0A1R3Y5N8)", "experiment": "biochemical", "assay_type": "binding"}, "BCG_3193 (Rv3169)": {"target": "BCG_3193 (Rv3169) (Mycobacterium bovis BCG, UniProt A0A1R3Y3B6)", "experiment": "biochemical", "assay_type": "binding"}, "BCG_3827 (Rv3768)": {"system": "BCG_3827 (Rv3768)", "assay_type": "binding, Mycobacterium bovis BCG"}, "physchem": {"experiment": "physchem", "conditions": "sheet table;; kinetic solubility, pH 7.4; aqueous buffer pH 7.4; Kinetic solubility at pH 7.4; read-out: Solubility (æM)", "experimental": "The kinetic solubility assay was performed using a miniaturised shake flask method. 10 mM stock […]\nDMSO, and to spike (1:50) duplicate aqueous samples of FaSSIF (simulating fasting state biorelevant media, pH 6.5), with a final DMSO concentration of 2%. After shaking for 2 hours at 25 °C, the solutions were filtered and analysed by means of HPLC,DAD (Agilent 1200 Rapid Resolution HPLC with a diode array detector). Best fit calibration curves were constructed using the calibration standards, which were used to determine the aqueous samples’ solubility.13\n4.2) Microsomal stability\nThe metabolic stability assay was performed in duplicate in a 96,well micro titre plate. The test compounds (0.1 µM) were incubated individually in mouse, rat and pooled human liver […]\nthe cofactor NADPH (1 mM). Reactions were quenched by adding 300 µL of ice cold acetonitrile containing internal standard (carbamazepine, 0.0236 µg/mL). Test compounds in the supernatant were analysed by means of LC,MS/MS (Agilent Rapid Resolution HPLC, AB SCIEX 4000 QTRAP MS) for the disappearance of parent compound. Metabolite searches were not conducted during the metabolic stability assay.14\n4.3) Plasma protein binding (PPB) assay\nThe plasma protein binding assay was performed in a 96,well micro titre plate with pooled human plasma, spiked with test compound (5 µM). […]"}, "in vitro": {"experiment": "in vitro", "conditions": "african green monkey; sheet table;; IC50 on Vero cells, MTT; read-out: Cytotoxicity (æM)", "experimental": "chemosensitivity. […]. Thus only viable cells\nformazan. Formazan crystals are dissolved in DMSO. The test samples were tested in triplicate on\nexperiment. […] Emetine was used\nas the reference drug in all experiments. The initial concentration of emetine was 100 µg/mL,\nlowest being 0.001 µg/mL. […] The\nthe cell viability (data not shown).\nGraphPad Prism v.4 software.\nElectrophysiologi Table 2 SAR on the Central Core a Kinetic solubility at pH 7.4. b IC50 on Vero cell lines."}, "[15]": {"system": "Mycobacterium tuberculosis (H37RvMa)", "experiment": "microbe, parasite or virus in culture", "design": "MIC99 by standard broth microdilution against M. tuberculosis H37Rv", "conditions": "read-out: MIC99 7H9/ADC (æM)"}, "[16]": {"system": "Mycobacterium tuberculosis (H37RvMa)", "experiment": "microbe, parasite or virus in culture", "design": "MIC99 by standard broth microdilution against M. tuberculosis H37Rv", "conditions": "sheet table;, MIC99, GAST/Fe medium, read-out: MIC99 GAST/Fe (æM)"}}, "note": "Where two headings read alike, the source gives them in different places.", "data": [{"molecule": "O=C(Nc1ccccc1)c1ccc(=O)n(Cc2ccc(F)cc2)c1", "note": "[Compound 25, 1-(4-Fluorobenzyl)-6-oxo-N-phenyl-1,6-dihydropyridine-3-carboxamide]", "values": [{"measurement": "IC50", "setting": "[1]; IC50", "value": "≥ 30", "unit": "µM"}, {"measurement": "IC50", "setting": "[1]; pIC50", "value": "≥ 30.2", "unit": "µM"}, {"measurement": "IC50", "setting": "[2]; IC50", "value": "≥ 30", "unit": "µM"}, {"measurement": "IC50", "setting": "[2]; pIC50", "value": "≥ 30.2", "unit": "µM"}, {"measurement": "IC50", "setting": "[3]", "value": "≥ 30", "unit": "µM"}, {"measurement": "pIC50", "setting": "[3]", "value": "≤ 4.52"}, {"measurement": "IC50", "setting": "[4]", "value": "≥ 30", "unit": "µM"}, {"measurement": "pIC50", "setting": "[4]", "value": "≤ 4.52"}, {"measurement": "IC50", "setting": "[5]", "value": "≥ 30", "unit": "µM"}, {"measurement": "pIC50", "setting": "[5]", "value": "≤ 4.52"}, {"measurement": "IC50", "setting": "[6]; IC50", "value": "≥ 30", "unit": "µM"}, {"measurement": "IC50", "setting": "[6]; pIC50", "value": "≥ 30.2", "unit": "µM"}, {"measurement": "IC50", "setting": "[7]; IC50", "value": "≥ 30", "unit": "µM"}, {"measurement": "IC50", "setting": "[7]; pIC50", "value": "≥ 30.2", "unit": "µM"}, {"measurement": "IC50", "setting": "[8]", "value": "≥ 30", "unit": "µM"}, {"measurement": "pIC50", "setting": "[8]", "value": "≤ 4.52"}, {"measurement": "IC50", "setting": "[9]; IC50", "value": "≥ 30", "unit": "µM"}, {"measurement": "IC50", "setting": "[9]; pIC50", "value": "≥ 30.2", "unit": "µM"}, {"measurement": "IC50", "setting": "[10]", "value": "≥ 30", "unit": "µM"}, {"measurement": "pIC50", "setting": "[10]", "value": "≤ 4.52"}, {"measurement": "IC50", "setting": "[11]", "value": "≥ 30", "unit": "µM"}, {"measurement": "pIC50", "setting": "[11]", "value": "≤ 4.52"}, {"measurement": "IC50", "setting": "[12]", "value": "≥ 30", "unit": "µM"}, {"measurement": "pIC50", "setting": "[12]", "value": "≤ 4.52"}, {"measurement": "IC50", "setting": "[13]", "value": "≥ 30", "unit": "µM"}, {"measurement": "pIC50", "setting": "[13]", "value": "≤ 4.52"}, {"measurement": "IC50", "setting": "[14]; IC50", "value": "≥ 30", "unit": "µM"}, {"measurement": "IC50", "setting": "[14]; pIC50", "value": "≥ 30.2", "unit": "µM"}, {"measurement": "binding of BCG_3193 to the compound beads in presence of free compound", "setting": "BCG_3193 (Rv3169)", "value": "no effect"}, {"measurement": "IC50", "setting": "BCG_3827 (Rv3768)", "value": "≥ 30", "unit": "µM"}, {"measurement": "binding of BCG_3827 to the compound beads in presence of free compound", "setting": "BCG_3827 (Rv3768)", "value": "no effect"}, {"measurement": "pIC50", "setting": "BCG_3827 (Rv3768)", "value": "≤ 4.52"}, {"measurement": "relative abundance 10: Compound competition 0.029 µM 25", "setting": "BCG_3827 (Rv3768); 0.029 µM", "value": 1.06}, {"measurement": "relative abundance 9: Compound competition 0.117 µM 25", "setting": "BCG_3827 (Rv3768); 0.117 µM", "value": 0.70}, {"measurement": "relative abundance 8: Compound competition 0.47 µM 25", "setting": "BCG_3827 (Rv3768); 0.47 µM", "value": 1.39}, {"measurement": "relative abundance 7: Compound competition 1.88 µM 25", "setting": "BCG_3827 (Rv3768); 1.88 µM", "value": 1.36}, {"measurement": "relative abundance 6: Compound competition 7.5 µM 25", "setting": "BCG_3827 (Rv3768); 7.5 µM", "value": 1.52}, {"measurement": "relative abundance 5: Compound competition 30 µM 25", "setting": "BCG_3827 (Rv3768); 30 µM", "value": 1.12}]}, {"molecule": "CC(=O)N1CCN(c2ccc(NC(=O)c3cc(N(C)Cc4ccc(C(F)(F)F)nc4)ncn3)cn2)CC1", "note": "[compound 44]", "values": [{"measurement": "solubility at 2 h", "setting": "physchem", "value": "< 5", "unit": "µM"}, {"measurement": "CC50", "setting": "in vitro", "value": "> 50", "unit": "µM"}, {"measurement": "MIC99", "setting": "[15]", "value": 4.7, "unit": "µM"}, {"measurement": "MIC99", "setting": "[16]", "value": 2.3, "unit": "µM"}]}]}
